Read-outs that look alike come from different tables or passages of the source.
Assays:
[1] = system: T-Rex 293 cell line SC3 cells lacking increased expression of androgen receptor protein; assay: Cellular growth inhibition assay, T-Rex 293 SC3 cells without doxycycline (CellTiter-Glo, 72 hours); format: cell-based; settings: T-Rex 293 cell line SC3 cells not exposed to doxycycline (lacking increased androgen receptor expression)
Method in brief: (§1)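 Growth inhibition is measured in an inducible AR-expressing T-Rex 293 clone, SC3, cultured with or without 10 ng/mL doxycycline in hormone-depleted medium. Test compounds are applied for 72 hours. GI50 values derive from CellTiter-Glo 2.0 signal fitted by four-parameter regression.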

[2] = system: T-Rex 293 cell line SC3 cells having increased expression of androgen receptor protein due to exposure to doxycycline; assay: Cellular growth inhibition assay, T-Rex 293 SC3 cells with doxycycline (CellTiter-Glo, 72 hours); format: cell-based; settings: T-Rex 293 SC3 cells with increased androgen receptor expression due to doxycycline (10 ng/mL)
Method in brief: as §1

VCaP cells = assay: Cellular growth inhibition assay for VCaP cells (CellTiter-Glo, 72 hours); format: cell-based, human
Method in brief: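 Luminescent viability signal after 72 h of compound exposure gave GI50 values by four-parameter nonlinear regression. Compounds were added in 0.5% DMSO to cells plated 24 h earlier at 5000/well in DMEM containing 10% FBS.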

| SMILES | GI50 ([1]; 72 h) [nM] | GI50 ([2]; 72 h) [nM] | GI50 (VCaP cells; Homo sapiens, VCaP, 72 h) [nM] | GI50 [1] [nM] | GI50 [2] [nM] | GI50 (VCaP cells) [nM] |
| --- | --- | --- | --- | --- | --- | --- |
| Cc1sc2c(c1C)C(c1ccc(N3CCN(CC4CCN(c5ccc(C(=O)N[C@H]6CC[C@H](Oc7ccc(C#N)c(Cl)c7)CC6)nn5)CC4)CC3)cc1)=N[C@@H](C)c1nnc(C)n1-2 [I-498] | > 3000 | < 500 | < 500 | – | – | – |
| CCNC(=O)C[C@@H]1N=C(c2ccc(N3CC(N(C4CC4)C4CN(c5ccc(C(=O)N[C@H]6CC[C@H](Oc7ccc(C#N)c(Cl)c7)CC6)nn5)C4)C3)cc2)c2c(sc(C)c2C)-n2c(C)nnc21 [I-56] | < 500 | < 500 | < 500 | – | – | – |
| Cc1sc2c(c1C)C(c1ccc(N3CC(C4CCN(c5ccc(C(=O)N[C@H]6CC[C@H](Oc7ccc(C#N)c(Cl)c7)CC6)nn5)CC4)C3)nc1)=NC1(CC1)c1nnc(C)n1-2 [I-503] | – | – | – | > 3000 | < 500 | 1500 to 3000 |
| Cc1sc2c(c1C)C(c1ccc(N3CC4(CC(C#Cc5ccc(C(=O)N[C@H]6CC[C@H](Oc7ccc(C#N)c(Cl)c7)CC6)nn5)C4)C3)cc1)=N[C@@H](Cc1ncco1)c1nnc(C)n1-2 [I-545] | < 500 | < 500 | < 500 | – | – | – |
| COCC[C@@H]1N=C(c2ccc(N3CCC4(CCN(c5ccc(C(=O)N[C@H]6CC[C@H](Oc7ccc(C#N)c(Cl)c7)CC6)nn5)CC4)C3)cc2)c2c(sc(C)c2C)-n2c(C)nnc21 [I-600] | < 500 | < 500 | > 3000 | – | – | – |
| Cc1sc2c(c1C)C(c1ccc(OC3CCC4(CCCN(c5ccc(C(=O)N[C@H]6CC[C@H](Oc7ccc(C#N)c(Cl)c7)CC6)nn5)C4)C3)cc1)=N[C@@H](C)c1nnc(C)n1-2 (stereo partly drawn) [I-536] | > 3000 | < 500 | – | – | – | > 3000 |
| CCNC(=O)C[C@@H]1N=C(c2ccc(N3CC(N(C)C4CN(c5ccc(C(=O)N[C@H]6CC[C@H](Oc7ccc(C#N)c(Cl)c7)CC6)nn5)C4)C3)cc2)c2c(sc(C)c2C)-n2c(C)nnc21 [I-61] | > 3000 | < 500 | < 500 | – | – | – |
| Cc1sc2c(c1C)C(c1ccc(CCC3CCN(c4ccc(C(=O)NC5CCC(Oc6ccc(C#N)c(Cl)c6)CC5)nn4)CC3)cc1)=NC(C)c1nnc(C)n1-2 (stereo not drawn) [I-593] | < 500 | < 500 | < 500 | – | – | – |
| Cc1sc2c(c1C)C(c1ccc(COC3CCC4(CCCN(c5ccc(C(=O)N[C@H]6CC[C@H](Oc7ccc(C#N)c(Cl)c7)CC6)nn5)C4)C3)cc1)=N[C@@H](C)c1nnc(C)n1-2 (stereo partly drawn) [I-514] | – | < 500 | – | < 500 | – | 1500 to 3000 |
| Cc1sc2c(c1C)C(c1ccc(C3CCC4(CC3)CCN(c3ccc(C(=O)N[C@H]5CC[C@H](Oc6ccc(C#N)c(Cl)c6)CC5)nn3)C4)cc1)=NC(C(F)(F)F)c1nnc(C)n1-2 (mixture of isomers) [I-742] | – | – | – | > 3000 | > 3000 | < 500 |
| Cc1sc2c(c1C)C(c1ccc(C3CCC4(CCN(c5ccc(C(=O)N[C@H]6CC[C@H](Oc7ccc(C#N)c(Cl)c7)CC6)nn5)CC4)C3)cn1)=NC1(CC1)c1nnc(C)n1-2 (stereo partly drawn) [I-691] | > 3000 | < 500 | < 500 | – | – | – |
| CCNC(=O)C[C@@H]1N=C(c2ccc(N3CCC(OC4CN(c5ccc(C(=O)N[C@H]6CC[C@H](Oc7ccc(C#N)c(Cl)c7)CC6)nn5)C4)CC3)cc2)c2c(sc(C)c2C)-n2c(C)nnc21 [I-58] | 500 to 1500 | < 500 | < 500 | – | – | – |
| COCC[C@@H]1N=C(c2ccc(C3CCC4(CCCN(c5ccc(C(=O)N[C@H]6CC[C@H](Oc7ccc(C#N)c(Cl)c7)CC6)nn5)C4)CC3)cc2)c2c(sc(C)c2C)-n2c(C)nnc21 (stereo partly drawn) [I-656] | > 3000 | < 500 | < 500 | – | – | – |
| Cc1sc2c(c1C)C(c1ccc(C3CCC4(CCCN(c5ccc(C(=O)N[C@H]6CC[C@H](Oc7ccc(C#N)c(Cl)c7)CC6)nn5)C4)CC3)cc1)=N[C@@H](C)c1nnc(C)n1-2 (stereo partly drawn) [I-674] | – | – | – | > 3000 | < 500 | < 500 |
| Cc1sc2c(c1C)C(c1ccc(C#CC3CC4(C3)CN(c3ccc(C(=O)N[C@H]5CC[C@H](Oc6ccc(C#N)c(Cl)c6)CC5)nn3)C4)cc1F)=NC(Cc1ncco1)c1nnc(C)n1-2 (mixture of isomers) [I-828, N-[4-(3-chloro-4-cyano-phenoxy)cyclohexyl]-6-[6-[2-[3-fluoro-4-[4,5,13-trimethyl-9-(oxazol-2-ylmethyl)-3-thia-1,8,11,12-tetrazatricyclo[8.3.0.02,6]trideca-2(6),4,7,10,12-pentaen-7-yl]phenyl]ethynyl]-2-azaspiro[3.3]heptan-2-yl]pyridazine-3-carboxamide] | < 500 | < 500 | < 500 | – | – | – |
| Cc1sc2c(c1C)C(c1ccc(CCC3CC4(CCCN(c5ccc(C(=O)N[C@H]6CC[C@H](Oc7ccc(C#N)c(Cl)c7)CC6)nn5)C4)C3)cn1)N[C@@H](Cc1ncco1)c1nnc(C)n1-2 (stereo partly drawn) [I-644] | – | – | – | > 3000 | < 500 | < 500 |
| Cc1sc2c(c1C)C(c1ccc(OCC3CCC4(CCCN(c5ccc(C(=O)N[C@H]6CC[C@H](Oc7ccc(C#N)c(Cl)c7)CC6)nn5)C4)C3)cc1)=N[C@@H](C)c1nnc(C)n1-2 (stereo partly drawn) [I-627] | – | – | – | < 500 | < 500 | < 500 |

| SMILES | GI50 ([1]; 72 h) [nM] | GI50 ([2]; 72 h) [nM] | GI50 (VCaP cells; Homo sapiens, VCaP, 72 h) [nM] | GI50 [1] [nM] | GI50 [2] [nM] | GI50 (VCaP cells) [nM] |
| --- | --- | --- | --- | --- | --- | --- |
| Cc1sc2c(c1C)C(c1ccc(N3CCC4(CCCN(c5ncc(C(=O)N[C@H]6CC[C@H](Oc7ccc(C#N)c(Cl)c7)CC6)cn5)C4)C3)cc1)=NC(Cc1ncco1)c1nnc(C)n1-2 (stereo partly drawn) [I-804] | > 3000 | < 500 | < 500 | – | – | – |
| Cc1sc2c(c1C)C(c1ccc(N[C@H]3CC[C@H](CNc4ncc(C(=O)N[C@H]5CC[C@H](Oc6ccc(C#N)c(Cl)c6)CC5)cn4)CC3)cc1)=NC(Cc1ncco1)c1nnc(C)n1-2 (stereo partly drawn) [I-796] | < 500 | < 500 | < 500 | – | – | – |
| Cc1sc2c(c1C)C(c1cccc(OC3CC4(CCCN(c5ccc(C(=O)N[C@H]6CC[C@H](Oc7ccc(C#N)c(Cl)c7)CC6)nn5)C4)C3)c1)=N[C@@H](C)c1nnc(C)n1-2 (stereo partly drawn) [I-686] | – | < 500 | < 500 | > 3000 | – | – |
| Cc1sc2c(c1C)C(c1ccccc1OC1CCC3(CC1)CCN(c1ccc(C(=O)N[C@H]4CC[C@H](Oc5ccc(C#N)c(Cl)c5)CC4)nn1)C3)=N[C@@H](C)c1nnc(C)n1-2 (stereo partly drawn) [I-752] | < 500 | < 500 | < 500 | – | – | – |
| Cc1sc2c(c1C)C(c1ccc(N3CC45CCCCC4(C3)CN(c3ccc(C(=O)N[C@H]4CC[C@H](Oc6ccc(C#N)c(Cl)c6)CC4)nn3)C5)cc1)=N[C@@H](C)c1nnc(C)n1-2 (stereo partly drawn) [I-766] | > 3000 | < 500 | < 500 | – | – | – |
| Cc1sc2c(c1C)C(c1ccc(C3CN(C4CCN(c5ccc(C(=O)N[C@H]6CC[C@H](Oc7ccc(C#N)c(Cl)c7)CC6)nn5)CC4)C3)cc1)=N[C@@H](C)c1nnc(C)n1-2 [I-560] | < 500 | < 500 | 1500 to 3000 | – | – | – |
| Cc1sc2c(c1C)C(c1ccc(CC3CC4(CCN(c5ccc(C(=O)N[C@H]6CC[C@H](Oc7ccc(C#N)c(Cl)c7)CC6)nn5)CC4)C3)cc1)=NC(C(F)(F)F)c1nnc(C)n1-2 (stereo partly drawn) [I-729] | – | – | – | > 3000 | < 500 | < 500 |
| COC[C@@H]1N=C(c2ccc(N3CCC4(CCN(c5ccc(C(=O)N[C@H]6CC[C@H](Oc7ccc(C#N)c(Cl)c7)CC6)nn5)CC4)C3)cc2)c2c(sc(C)c2C)-n2c(C)nnc21 [I-615] | < 500 | < 500 | < 500 | – | – | – |
| Cc1sc2c(c1C)C(c1ccc(OCC3CC4(CCCN(c5ccc(C(=O)N[C@H]6CC[C@H](Oc7ccc(C#N)c(Cl)c7)CC6)nn5)C4)C3)nc1)=NC1(CC1)c1nnc(C)n1-2 (stereo partly drawn) [I-486] | > 3000 | < 500 | < 500 | – | – | – |
| Cc1sc2c(c1C)C(c1cccc(N3CCC4(CCN(c5ccc(C(=O)N[C@H]6CC[C@H](Oc7ccc(C#N)c(Cl)c7)CC6)nn5)C4)C3)c1)=N[C@@H](C)c1nnc(C)n1-2 (stereo partly drawn) [I-708] | – | – | – | 1500 to 3000 | < 500 | < 500 |
| Cc1sc2c(c1C)C(c1ccc(OC3CC(CC4CCN(c5ccc(C(=O)N[C@H]6CC[C@H](Oc7ccc(C#N)c(Cl)c7)CC6)nn5)CC4)C3)cc1)=N[C@@H](C)c1nnc(C)n1-2 (stereo partly drawn) [I-543] | > 3000 | < 500 | < 500 | – | – | – |
| COCC[C@@H]1N=C(c2ccc(OC3CC4(CCCN(c5ccc(C(=O)N[C@H]6CC[C@H](Oc7ccc(C#N)c(Cl)c7)CC6)nn5)C4)C3)cc2)c2c(sc(C)c2C)-n2c(C)nnc21 (stereo partly drawn) [I-662] | 500 to 1500 | < 500 | < 500 | – | – | – |
| Cc1sc2c(c1C)C(c1ccc(CC3CCC4(CCCN(c5ccc(C(=O)N[C@H]6CC[C@H](Oc7ccc(C#N)c(Cl)c7)CC6)nn5)C4)C3)cc1)=N[C@@H](C)c1nnc(C)n1-2 (stereo partly drawn) [I-582] | – | < 500 | > 3000 | < 500 | – | – |
| CC[C@@H]1N=C(c2ccc(OC3(C)CC4(CN(c5ccc(C(=O)N[C@H]6CC[C@H](Oc7ccc(C#N)c(Cl)c7)CC6)nn5)C4)C3)cc2)c2c(sc(C)c2C)-n2c(C)nnc21 [I-632] | < 500 | < 500 | < 500 | – | – | – |
| Cc1sc2c(c1C)C(c1ccc(N3CCC4CN(c5ccc(C(=O)N[C@H]6CC[C@H](Oc7ccc(C#N)c(Cl)c7)CC6)nn5)CCC4C3)cc1)=NC1(CC1)c1nnc(C)n1-2 (stereo partly drawn) [I-565] | – | – | – | < 500 | < 500 | > 3000 |
| Cc1sc2c(c1C)C(c1ccc(N3C4CCCC3CC3(CCN(c5ccc(C(=O)N[C@H]6CC[C@H](Oc7ccc(C#N)c(Cl)c7)CC6)nn5)C3)C4)cc1)=N[C@@H](C)c1nnc(C)n1-2 (stereo partly drawn) [I-730] | – | – | < 500 | > 3000 | < 500 | – |
| Cc1sc2c(c1C)C(c1ccc(OCC3CCC4(CCCN(c5ccc(C(=O)N[C@H]6CC[C@H](Oc7ccc(C#N)c(Cl)c7)CC6)nn5)C4)C3)cc1)=N[C@@H](C)c1nnc(C)n1-2 (stereo partly drawn) [I-626] | < 500 | < 500 | < 500 | – | – | – |

Reference: patent US20260109707A1, “HETEROBIFUNCTIONAL COMPOUNDS AND METHODS OF TREATING DISEASE” (Halda Therapeutics OpCo. Inc., priority 2022, published 2026)
